Test results reported in patent US9540392B2, “Thienopyrimidines” (BAYER PHARMA AKTIENGESELLSCHAFT, priority 2012, dated 2017).

These compounds were tested against T1, human full-length MKNK1 (Homo sapiens, UniProt Q9BUB5, T385D) (assay: MKNK1 kinase high ATP assay (TR-FRET)). Conditions: 2 mM ATP, after preincubation with MKNK1; read-out: MKNK1 IC50 (MKNK1 high ATP).
T1 construct: GST (N); purchased Carna Biosciences 02-145; host or cells: insect cells (baculovirus expression system)
Assay type: biochemical
Procedure: MKNK1-inhibitory activity at high ATP of compounds of the present invention after their preincubation with MKNK1 was quantified employing the TR-FRET-based MKNK1 high ATP assay as described in the following paragraphs.
As substrate for the kinase reaction the biotinylated peptide biotin-Ahx-[…] (C-terminus in amide form) was used, which can be purchased e.g. from the company Biosyntan (Berlin-Buch, Germany).
For the assay 50 nL of a 100 fold concentrated solution of the test compound in DMSO was pipetted into a black low volume 384 well microtiter plate (Greiner Bio-One, Frickenhausen, Germany), 2 μL of a solution of MKNK1 in aqueous assay buffer [50 mM HEPES pH 7.5, 5 mM MgCl2, 1.0 mM dithiothreitol, 0.005% (v/v) Nonidet-P40 (Sigma)] was added and the mixture was incubated for 15 min at 22° C. to allow pre-binding of the test compounds to the enzyme before the start of the kinase reaction. Then the kinase reaction was started by the addition of 3 μL of a solution of adenosine-tri-phosphate (ATP, 3.3 mM=>final conc. in the 5 μL assay volume is 2 mM) and substrate (0.1 μM=>final conc. in the 5 μL assay volume is 0.06 μM) in assay buffer and the resulting mixture was incubated for a reaction time of 30 min at 22° C. The concentration of MKNK1 was adjusted depending of the activity of the enzyme lot and was chosen appropriate to have the assay in the linear range, typical concentrations were in the range of 0.003 μg/mL. The reaction was stopped by the addition of 5 μL of a solution of TR-FRET detection reagents (5 nM streptavidine-XL665 [Cisbio Bioassays, Codolet, France] and 1 nM anti-ribosomal protein S6 (pSer236)-antibody from Invitrogen [#44921G] and 1 nM LANCE EU-W1024 Labeled ProteinG [Perkin-Elmer, product no. AD0071]) in an aqueous EDTA-solution (100 mM EDTA, 0.1% (w/v) bovine serum albumin in 50 mM HEPES pH 7.5).
The resulting mixture was incubated for 1 h at 22° C. to allow the formation of complex between the phosphorylated biotinylated peptide and the detection reagents. Subsequently the amount of phosphorylated substrate was evaluated by measurement of the resonance energy transfer from the Eu-chelate to the streptavidine-XL. Therefore, the fluorescence emissions at 620 nm and 665 nm after excitation at 350 nm were measured in a TR-FRET reader, e.g. a Rubystar (BMG Labtechnologies, Offenburg, Germany) or a Viewlux (Perkin-Elmer). The ratio of the emissions at 665 nm and at 622 nm was taken as the measure for the amount of phosphorylated substrate.

T1 sequence (Q9BUB5 1-424 isoform Q9BUB5-2 T344D): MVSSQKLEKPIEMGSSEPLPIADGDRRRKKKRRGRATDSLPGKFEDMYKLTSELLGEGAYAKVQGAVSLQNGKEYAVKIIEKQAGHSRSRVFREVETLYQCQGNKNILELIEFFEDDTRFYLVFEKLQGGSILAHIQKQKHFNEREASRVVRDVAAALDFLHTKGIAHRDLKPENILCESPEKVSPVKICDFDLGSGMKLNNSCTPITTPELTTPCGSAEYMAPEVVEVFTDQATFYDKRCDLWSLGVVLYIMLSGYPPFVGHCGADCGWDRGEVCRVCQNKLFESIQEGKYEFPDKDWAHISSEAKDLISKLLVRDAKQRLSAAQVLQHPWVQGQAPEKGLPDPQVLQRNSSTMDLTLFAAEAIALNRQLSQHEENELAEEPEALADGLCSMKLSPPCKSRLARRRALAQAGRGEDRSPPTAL

Row | SMILES | IC50 [nM]
1 | CC(C)Oc1cc2[nH]ncc2cc1Nc1ncnc2sc3c(c12)CCC(C(=O)O)C3 (racemic) [Example 69, (RS)-4-{[6-(Propan-2-yloxy)-1H-indazol-5-yl]amino}-5,6,7,8-tetrahydro[1]benzothieno[2,3-d]pyrimidine-7-carboxylic acid] | 3.9
2 | O=C(NCc1cccnc1)C1CCc2c(sc3ncnc(Nc4ccc5[nH]ncc5c4)c23)C1 (racemic) [Example 76, (RS)-4-(1H-Indazol-5-ylamino)-N-(pyridin-3-ylmethyl)-5,6,7,8-tetrahydro[1]benzothieno[2,3-d]pyrimidine-7-carboxamide] | 5.1
3 | N#Cc1ccc(NC(=O)C2CCc3c(sc4ncnc(Nc5ccc6[nH]ncc6c5)c34)C2)cc1 (racemic) [Example 77, (RS)—N-(4-Cyanophenyl)-4-(1H-indazol-5-ylamino)-5,6,7,8-tetrahydro[1]benzothieno[2,3-d]pyrimidine-7-carboxamide] | 19.7
4 | N#Cc1cccc(NC(=O)C2CCc3c(sc4ncnc(Nc5ccc6[nH]ncc6c5)c34)C2)c1 (racemic) [Example 79, (RS)—N-(3-Cyanophenyl)-4-(1H-indazol-5-ylamino)-5,6,7,8-tetrahydro[1]benzothieno[2,3-d]pyrimidine-7-carboxamide] | 10.5
5 | O=C(NCc1ccccn1)C1CCc2c(sc3ncnc(Nc4ccc5[nH]ncc5c4)c23)C1 (racemic) [Example 81, (RS)-4-(1H-indazol-5-ylamino)-N-(pyridin-2-ylmethyl)-5,6,7,8-tetrahydro[1]benzothieno[2,3-d]pyrimidine-7-carboxamide] | 2.4
6 | O=C(C1CCc2c(sc3ncnc(Nc4ccc5[nH]ncc5c4)c23)C1)N1CCCCC1 (racemic) [Example 82, (RS)-[4-(1H-indazol-5-ylamino)-5,6,7,8-tetrahydro[1]benzothieno[2,3-d]pyrimidin-7-yl](piperidin-1-yl)methanone] | 14.6
7 | O=C(C1CCc2c(sc3ncnc(Nc4ccc5[nH]ncc5c4)c23)C1)N1CCC(O)CC1 (racemic) [Example 85, (RS)-(4-hydroxypiperidin-1-yl)[4-(1H-indazol-5-ylamino)-5,6,7,8-tetrahydro[1]benzothieno[2,3-d]pyrimidin-7-yl]methanone] | 11.7
8 | O=C(C1CCc2c(sc3ncnc(Nc4ccc5[nH]ncc5c4)c23)C1)N1CCN(Cc2ccccc2)CC1 (racemic) [Example 86, (RS)-(4-benzylpiperazin-1-yl)[4-(1H-indazol-5-ylamino)-5,6,7,8-tetrahydro[1]benzothieno[2,3-d]pyrimidin-7-yl]methanone] | 14.9
9 | O=C(C1CCc2c(sc3ncnc(Nc4ccc5[nH]ncc5c4)c23)C1)N1CCN(c2ccccn2)CC1 (racemic) [Example 87, (RS)-[4-(1H-indazol-5-ylamino)-5,6,7,8-tetrahydro[1]benzothieno[2,3-d]pyrimidin-7-yl][4-(pyridin-2-yl)piperazin-1-yl]methanone] | 20.6
10 | O=C(C1CCc2c(sc3ncnc(Nc4ccc5[nH]ncc5c4)c23)C1)N1CCCC(CO)C1 (racemic) [Example 88, (RS)-[3-(hydroxymethyl)piperidin-1-yl][4-(1H-indazol-5-ylamino)-5,6,7,8-tetrahydro[1]benzothieno[2,3-d]pyrimidin-7-yl]methanone] | 9.9
11 | O=C(Nc1cc[nH]n1)C1CCc2c(sc3ncnc(Nc4ccc5[nH]ncc5c4)c23)C1 (racemic) [Example 89, (RS)-4-(1H-indazol-5-ylamino)-N-(1H-pyrazol-3-yl)-5,6,7,8-tetrahydro[1]benzothieno[2,3-d]pyrimidine-7-carboxamide] | 24.1
12 | O=C(NCc1cccs1)C1CCc2c(sc3ncnc(Nc4ccc5[nH]ncc5c4)c23)C1 (racemic) [Example 90, (RS)-4-(1H-indazol-5-ylamino)-N-(thiophen-2-ylmethyl)-5,6,7,8-tetrahydro[1]benzothieno[2,3-d]pyrimidine-7-carboxamide] | 16.4
13 | O=C(NCCc1c[nH]cn1)C1CCc2c(sc3ncnc(Nc4ccc5[nH]ncc5c4)c23)C1 (racemic) [Example 92, (RS)-N-[2-(1H-imidazol-4-yl)ethyl]-4-(1H-indazol-5-ylamino)-5,6,7,8-tetrahydro[1]benzothieno[2,3-d]pyrimidine-7-carboxamide] | 9.8
14 | O=C(NCCCn1ccnc1)C1CCc2c(sc3ncnc(Nc4ccc5[nH]ncc5c4)c23)C1 (racemic) [Example 93, (RS)-N-[3-(1H-imidazol-1-yl)propyl]-4-(1H-indazol-5-ylamino)-5,6,7,8-tetrahydro[1]benzothieno[2,3-d]pyrimidine-7-carboxamide] | 9.9
15 | O=C(Nc1ccncc1)C1CCc2c(sc3ncnc(Nc4ccc5[nH]ncc5c4)c23)C1 (racemic) [Example 94, (RS)-4-(1H-indazol-5-ylamino)-N-(pyridin-4-yl)-5,6,7,8-tetrahydro[1]benzothieno[2,3-d]pyrimidine-7-carboxamide] | 23.4
16 | CC(=O)N1CCN(C(=O)C2CCc3c(sc4ncnc(Nc5ccc6[nH]ncc6c5)c34)C2)CC1 (racemic) [Example 97, (RS)-1-(4-{[4-(1H-indazol-5-ylamino)-5,6,7,8-tetrahydro[1]benzothieno[2,3-d]pyrimidin-7-yl]carbonyl}piperazin-1-yl)ethanone] | 20.3
17 | O=C(NCCN1CCCC1)C1CCc2c(sc3ncnc(Nc4ccc5[nH]ncc5c4)c23)C1 (racemic) [Example 98, (RS)-4-(1H-indazol-5-ylamino)-N-[2-(pyrrolidin-1-yl)ethyl]-5,6,7,8-tetrahydro[1]benzothieno[2,3-d]pyrimidine-7-carboxamide] | 8.1

Next, values leading:

Row | IC50 [nM] | SMILES
18 | 8.9 | COC(=O)C1CCc2c(sc3ncnc(Nc4ccc5[nH]ncc5c4)c23)C1 (racemic) [Example 73, (RS)-Methyl 4-(1H-indazol-5-ylamino)-5,6,7,8-tetrahydro[1]benzothieno[2,3-d]pyrimidine-7-carboxylate]
19 | 27.6 | CC(C)OC(=O)C1CCc2c(sc3ncnc(Nc4ccc5[nH]ncc5c4)c23)C1 (racemic) [Example 74, (RS)-Propan-2-yl 4-(1H-indazol-5-ylamino)-5,6,7,8-tetrahydro[1]benzothieno[2,3-d]pyrimidine-7-carboxylate]
20 | 15.6 | O=C(NC1COC1)C1CCc2c(sc3ncnc(Nc4ccc5[nH]ncc5c4)c23)C1 (racemic) [Example 78, (RS)-4-(1H-Indazol-5-ylamino)-N-(oxetan-3-yl)-5,6,7,8-tetrahydro[1]benzothieno[2,3-d]pyrimidine-7-carboxamide]
21 | 9.1 | O=C(NC1CC1)C1CCc2c(sc3ncnc(Nc4ccc5[nH]ncc5c4)c23)C1 (racemic) [Example 80, (RS)-N-Cyclopropyl-4-(1H-indazol-5-ylamino)-5,6,7,8-tetrahydro[1]benzothieno[2,3-d]pyrimidine-7-carboxamide]
22 | 14.7 | CCN(CC)C(=O)C1CCc2c(sc3ncnc(Nc4ccc5[nH]ncc5c4)c23)C1 (racemic) [Example 83, (RS)-N,N-diethyl-4-(1H-indazol-5-ylamino)-5,6,7,8-tetrahydro[1]benzothieno[2,3-d]pyrimidine-7-carboxamide]
23 | 5.5 | CN(C)CCN(Cc1ccccc1)C(=O)C1CCc2c(sc3ncnc(Nc4ccc5[nH]ncc5c4)c23)C1 (racemic) [Example 84, (RS)-N-benzyl-N-[2-(dimethylamino)ethyl]-4-(1H-indazol-5-ylamino)-5,6,7,8-tetrahydro[1]benzothieno[2,3-d]pyrimidine-7-carboxamide]
24 | 6.6 | CN(C(=O)C1CCc2c(sc3ncnc(Nc4ccc5[nH]ncc5c4)c23)C1)c1ccccc1 (racemic) [Example 91, (RS)-4-(1H-indazol-5-ylamino)-N-methyl-N-phenyl-5,6,7,8-tetrahydro[1]benzothieno[2,3-d]pyrimidine-7-carboxamide]
25 | 20.6 | CCN(CC)CCN(C)C(=O)C1CCc2c(sc3ncnc(Nc4ccc5[nH]ncc5c4)c23)C1 (racemic) [Example 95, (RS)-N-[2-(diethylamino)ethyl]-4-(1H-indazol-5-ylamino)-N-methyl-5,6,7,8-tetrahydro[1]benzothieno[2,3-d]pyrimidine-7-carboxamide]
26 | 16.3 | CN(C)CCCN(C)C(=O)C1CCc2c(sc3ncnc(Nc4ccc5[nH]ncc5c4)c23)C1 (racemic) [Example 96, (RS)-N-[3-(dimethylamino)propyl]-4-(1H-indazol-5-ylamino)-N-methyl-5,6,7,8-tetrahydro[1]benzothieno[2,3-d]pyrimidine-7-carboxamide]
